Here are results for one molecule from paper PMC5762315, “Inhibition of polo-like kinase 4 (PLK4): a new therapeutic option for rhabdoid tumors and pediatric medulloblastoma” (Oncotarget, 2017).

Test [1] deals with various kinases (Homo sapiens, UniProt P10721, Y823D). Briefly: LanthaScreen Eu Kinase Binding Assay, panel of 486 biochemical kinase assays. As to conditions: KIT Y823D. For orientation: Time-resolved FRET reads energy transfer from a long-lived donor to a nearby acceptor.
Test [2] addresses various kinases (Homo sapiens, UniProt P15056, V600E). The description is as above. As to conditions: BRAF V599E.
Test [3] has as its target various kinases (Homo sapiens, UniProt P22612). The description is as above. As to conditions: kinase PRKACG (PRKAC gamma); LanthaScreen Binding.
Test [4] concerns the target various kinases (Homo sapiens, UniProt P36507). The description is as above. The settings on record: MAP2K2 (MEK2).
In test [5] the target is T1, various kinases (Homo sapiens, UniProt P36897).
T1 sequence (P36897 34-503): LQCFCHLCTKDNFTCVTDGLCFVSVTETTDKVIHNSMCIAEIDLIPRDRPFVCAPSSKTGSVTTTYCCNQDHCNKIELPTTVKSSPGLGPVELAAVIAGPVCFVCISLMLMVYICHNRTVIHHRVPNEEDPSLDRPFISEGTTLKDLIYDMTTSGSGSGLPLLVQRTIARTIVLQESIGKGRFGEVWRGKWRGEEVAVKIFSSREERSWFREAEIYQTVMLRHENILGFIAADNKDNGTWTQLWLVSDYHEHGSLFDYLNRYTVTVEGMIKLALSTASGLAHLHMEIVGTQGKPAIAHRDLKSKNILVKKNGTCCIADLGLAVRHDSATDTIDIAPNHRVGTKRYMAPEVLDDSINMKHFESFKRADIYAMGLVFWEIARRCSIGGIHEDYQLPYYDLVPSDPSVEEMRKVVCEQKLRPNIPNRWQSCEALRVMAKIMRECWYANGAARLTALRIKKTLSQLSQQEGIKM
The test is described as above. The settings on record: kinase TGFBR1 (ALK5); LanthaScreen Binding.

The target of test [6] is various kinases (Homo sapiens, UniProt Q08345). Described as above. As to conditions: DDR1.
Sequence of various kinases (Homo sapiens, UniProt Q08345) (Q08345 19-913): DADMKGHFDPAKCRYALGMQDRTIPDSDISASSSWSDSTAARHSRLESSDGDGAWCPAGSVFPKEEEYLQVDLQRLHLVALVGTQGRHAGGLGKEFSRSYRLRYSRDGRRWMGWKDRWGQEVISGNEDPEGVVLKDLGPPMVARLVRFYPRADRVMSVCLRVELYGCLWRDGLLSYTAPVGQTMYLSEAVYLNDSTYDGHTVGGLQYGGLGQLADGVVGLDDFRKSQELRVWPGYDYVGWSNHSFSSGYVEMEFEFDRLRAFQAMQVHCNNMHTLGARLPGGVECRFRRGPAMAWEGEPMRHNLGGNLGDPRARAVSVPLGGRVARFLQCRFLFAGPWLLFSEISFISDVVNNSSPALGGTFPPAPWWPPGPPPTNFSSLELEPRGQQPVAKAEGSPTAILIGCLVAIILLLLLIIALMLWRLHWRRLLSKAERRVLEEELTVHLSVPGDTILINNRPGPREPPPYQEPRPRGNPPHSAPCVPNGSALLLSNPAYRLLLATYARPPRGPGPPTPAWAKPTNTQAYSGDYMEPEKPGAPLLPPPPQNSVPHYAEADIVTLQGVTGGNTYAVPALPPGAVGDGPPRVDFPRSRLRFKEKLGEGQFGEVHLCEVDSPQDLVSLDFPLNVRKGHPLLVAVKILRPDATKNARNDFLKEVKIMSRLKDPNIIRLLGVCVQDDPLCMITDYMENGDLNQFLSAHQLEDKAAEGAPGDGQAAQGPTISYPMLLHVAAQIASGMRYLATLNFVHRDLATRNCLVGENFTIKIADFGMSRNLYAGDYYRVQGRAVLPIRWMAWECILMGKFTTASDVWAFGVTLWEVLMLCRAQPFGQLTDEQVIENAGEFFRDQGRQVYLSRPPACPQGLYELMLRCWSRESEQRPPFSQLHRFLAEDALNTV
In test [7] the target is various kinases (Homo sapiens, UniProt Q8N5S9). Described as above. As to conditions: CAMKK1 (CAMKKA).
Sequence of various kinases (Homo sapiens, UniProt Q8N5S9) (Q8N5S9 whole entry): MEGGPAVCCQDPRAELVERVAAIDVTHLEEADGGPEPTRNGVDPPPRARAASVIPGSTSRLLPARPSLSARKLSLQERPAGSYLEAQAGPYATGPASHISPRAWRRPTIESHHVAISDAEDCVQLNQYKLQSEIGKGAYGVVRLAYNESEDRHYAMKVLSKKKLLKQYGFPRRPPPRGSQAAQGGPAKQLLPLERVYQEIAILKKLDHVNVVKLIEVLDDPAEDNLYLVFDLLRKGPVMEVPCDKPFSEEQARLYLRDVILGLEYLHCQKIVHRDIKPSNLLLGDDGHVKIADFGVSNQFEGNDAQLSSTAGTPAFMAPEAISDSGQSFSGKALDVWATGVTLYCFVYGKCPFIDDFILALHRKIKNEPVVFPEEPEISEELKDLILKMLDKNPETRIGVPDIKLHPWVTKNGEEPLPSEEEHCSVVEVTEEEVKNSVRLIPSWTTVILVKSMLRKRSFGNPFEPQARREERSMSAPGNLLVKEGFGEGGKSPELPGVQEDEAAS
The target in test [8] is various kinases (Homo sapiens, UniProt Q9BWU1). Described as above.
Sequence of various kinases (Homo sapiens, UniProt Q9BWU1) (Q9BWU1 whole entry): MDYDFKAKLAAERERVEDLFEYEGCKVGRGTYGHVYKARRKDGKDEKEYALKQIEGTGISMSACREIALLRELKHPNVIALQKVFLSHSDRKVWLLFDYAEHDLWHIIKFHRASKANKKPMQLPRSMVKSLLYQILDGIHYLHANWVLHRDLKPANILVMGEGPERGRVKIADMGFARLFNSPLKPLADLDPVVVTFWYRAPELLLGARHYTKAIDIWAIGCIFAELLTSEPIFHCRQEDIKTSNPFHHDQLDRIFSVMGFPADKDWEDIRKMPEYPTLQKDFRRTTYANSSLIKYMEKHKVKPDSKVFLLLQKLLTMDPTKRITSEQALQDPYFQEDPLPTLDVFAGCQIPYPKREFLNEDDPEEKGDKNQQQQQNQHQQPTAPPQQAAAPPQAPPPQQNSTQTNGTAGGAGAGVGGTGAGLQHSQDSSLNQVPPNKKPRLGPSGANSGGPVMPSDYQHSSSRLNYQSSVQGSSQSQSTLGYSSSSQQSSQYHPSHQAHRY
For test [9], the target named is T2, various kinases (Homo sapiens, UniProt Q9UKI8).
T2 sequence (Q9UKI8 1-766): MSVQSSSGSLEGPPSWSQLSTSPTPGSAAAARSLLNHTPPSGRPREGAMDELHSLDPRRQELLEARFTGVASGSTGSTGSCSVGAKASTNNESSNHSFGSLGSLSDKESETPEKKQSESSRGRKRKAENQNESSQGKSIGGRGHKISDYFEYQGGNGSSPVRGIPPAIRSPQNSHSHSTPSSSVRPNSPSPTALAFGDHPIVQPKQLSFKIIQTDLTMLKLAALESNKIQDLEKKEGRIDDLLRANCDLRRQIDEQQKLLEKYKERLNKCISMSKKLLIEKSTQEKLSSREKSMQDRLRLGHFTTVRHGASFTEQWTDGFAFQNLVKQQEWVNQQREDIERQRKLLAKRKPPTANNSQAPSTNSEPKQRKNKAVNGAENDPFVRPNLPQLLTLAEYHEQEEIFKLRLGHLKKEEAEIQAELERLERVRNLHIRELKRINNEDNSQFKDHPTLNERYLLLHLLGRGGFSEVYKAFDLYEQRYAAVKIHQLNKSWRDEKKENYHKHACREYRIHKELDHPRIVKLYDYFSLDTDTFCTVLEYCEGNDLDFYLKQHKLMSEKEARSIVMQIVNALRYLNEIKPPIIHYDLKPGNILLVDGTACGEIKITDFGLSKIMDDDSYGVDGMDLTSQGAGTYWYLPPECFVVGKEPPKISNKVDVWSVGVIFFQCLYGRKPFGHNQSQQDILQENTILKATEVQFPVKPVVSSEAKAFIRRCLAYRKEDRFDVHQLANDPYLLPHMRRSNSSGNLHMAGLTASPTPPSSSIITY
The test is described as above. As to conditions: kinase TLK1; LanthaScreen Binding.

Test [10] deals with BT-12 AT/RT orthotopic xenografts. In words: Intracranial AT/RT xenograft tumors. Format: in vivo, athymic mice. The text has this:
Six-week-old female athymic mice (rnu/rnu genotype, BALB/c background) were purchased from Envigo (Harlan) and housed under aseptic conditions, which included filtered air and sterilized food, water, bedding, and cages. The Northwestern University Institutional Animal Care and Use Committee approved all animal protocols. The BT-12 AT/RT cell line, which has high expression of PLK4 was modified to express luciferase and injected intracranially in nude mice as previously described. Each mouse was injected with a cell suspension (10,000 cells/3μL) into the right caudate putamen of the brain. […] Bioluminescence monitoring was performed twice a week throughout the course of the experiment for quantitative measurement of tumor growth and response to therapy. Kaplan-Meier survival analysis was performed to assess survival benefit within the treatment group as compared to controls. Differences between survival curves were calculated using a log-rank test. Brains were resected at 6 hours following completion of the treatment and placed in 4% paraformaldehyde for subsequent histological examination.

The mark [11] stands for this setting: H&E of xenografts, treated vs control, p-value<0.0001.

The structures appear in SMILES notation. Where “and” joins values, the source holds several entries; their conditions need not be identical. Equal entries are not always repeated.

Sequence of various kinases (Homo sapiens, UniProt P22612) (P22612 whole entry): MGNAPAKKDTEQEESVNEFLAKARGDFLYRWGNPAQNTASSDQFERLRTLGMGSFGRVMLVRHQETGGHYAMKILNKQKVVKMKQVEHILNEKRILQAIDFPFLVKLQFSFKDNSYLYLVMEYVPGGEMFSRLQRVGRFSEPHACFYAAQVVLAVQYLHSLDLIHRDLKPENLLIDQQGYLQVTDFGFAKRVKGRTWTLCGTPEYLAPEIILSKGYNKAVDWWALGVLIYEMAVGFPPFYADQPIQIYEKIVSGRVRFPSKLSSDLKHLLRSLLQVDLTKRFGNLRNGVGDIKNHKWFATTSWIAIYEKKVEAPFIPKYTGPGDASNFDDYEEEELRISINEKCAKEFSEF
Sequence of various kinases (Homo sapiens, UniProt P15056, V600E) (P15056 whole entry V600E): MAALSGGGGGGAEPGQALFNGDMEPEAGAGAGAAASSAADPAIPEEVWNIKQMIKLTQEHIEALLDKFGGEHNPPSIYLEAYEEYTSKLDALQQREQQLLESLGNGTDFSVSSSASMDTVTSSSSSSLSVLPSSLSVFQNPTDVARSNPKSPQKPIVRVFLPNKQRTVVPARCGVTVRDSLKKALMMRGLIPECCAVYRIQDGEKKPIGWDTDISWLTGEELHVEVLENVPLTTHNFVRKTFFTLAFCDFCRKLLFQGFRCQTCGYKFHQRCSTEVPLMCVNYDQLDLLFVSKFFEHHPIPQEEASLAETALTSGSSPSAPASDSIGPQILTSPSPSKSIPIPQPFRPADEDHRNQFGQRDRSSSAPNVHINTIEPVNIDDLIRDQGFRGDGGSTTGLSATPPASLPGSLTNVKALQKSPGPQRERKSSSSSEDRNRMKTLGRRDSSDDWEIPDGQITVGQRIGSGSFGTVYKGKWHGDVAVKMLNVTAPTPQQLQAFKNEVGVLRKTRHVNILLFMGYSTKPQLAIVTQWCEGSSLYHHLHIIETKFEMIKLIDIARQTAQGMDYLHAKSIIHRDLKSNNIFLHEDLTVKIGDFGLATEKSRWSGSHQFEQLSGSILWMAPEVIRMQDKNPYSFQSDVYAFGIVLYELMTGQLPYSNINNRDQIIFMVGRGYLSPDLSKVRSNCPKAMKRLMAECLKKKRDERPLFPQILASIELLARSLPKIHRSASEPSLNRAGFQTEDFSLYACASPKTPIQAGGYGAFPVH
Sequence of various kinases (Homo sapiens, UniProt P10721, Y823D) (P10721 26-976 Y823D): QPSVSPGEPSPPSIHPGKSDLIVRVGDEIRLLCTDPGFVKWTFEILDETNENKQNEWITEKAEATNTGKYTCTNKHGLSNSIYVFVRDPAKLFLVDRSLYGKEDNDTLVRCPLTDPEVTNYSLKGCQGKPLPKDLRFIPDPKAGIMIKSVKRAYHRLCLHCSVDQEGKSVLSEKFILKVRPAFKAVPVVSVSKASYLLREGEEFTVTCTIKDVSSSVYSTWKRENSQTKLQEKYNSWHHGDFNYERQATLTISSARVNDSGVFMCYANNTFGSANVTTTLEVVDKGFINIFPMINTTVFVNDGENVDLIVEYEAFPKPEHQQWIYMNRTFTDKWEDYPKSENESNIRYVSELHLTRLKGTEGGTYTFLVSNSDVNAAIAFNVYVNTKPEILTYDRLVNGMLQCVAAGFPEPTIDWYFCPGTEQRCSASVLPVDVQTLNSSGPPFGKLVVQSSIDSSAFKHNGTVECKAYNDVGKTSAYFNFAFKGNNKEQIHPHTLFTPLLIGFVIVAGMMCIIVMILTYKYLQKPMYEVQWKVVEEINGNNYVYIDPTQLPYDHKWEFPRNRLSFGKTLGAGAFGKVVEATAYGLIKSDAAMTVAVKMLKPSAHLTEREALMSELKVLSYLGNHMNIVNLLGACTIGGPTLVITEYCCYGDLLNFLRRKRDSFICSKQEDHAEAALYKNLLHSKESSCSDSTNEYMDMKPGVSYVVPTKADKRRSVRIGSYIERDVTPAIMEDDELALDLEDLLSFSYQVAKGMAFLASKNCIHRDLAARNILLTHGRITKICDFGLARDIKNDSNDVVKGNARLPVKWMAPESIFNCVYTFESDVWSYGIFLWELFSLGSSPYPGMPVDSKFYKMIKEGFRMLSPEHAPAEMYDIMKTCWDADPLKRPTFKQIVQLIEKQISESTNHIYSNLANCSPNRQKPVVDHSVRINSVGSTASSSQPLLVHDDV
Sequence of various kinases (Homo sapiens, UniProt P36507) (P36507 whole entry): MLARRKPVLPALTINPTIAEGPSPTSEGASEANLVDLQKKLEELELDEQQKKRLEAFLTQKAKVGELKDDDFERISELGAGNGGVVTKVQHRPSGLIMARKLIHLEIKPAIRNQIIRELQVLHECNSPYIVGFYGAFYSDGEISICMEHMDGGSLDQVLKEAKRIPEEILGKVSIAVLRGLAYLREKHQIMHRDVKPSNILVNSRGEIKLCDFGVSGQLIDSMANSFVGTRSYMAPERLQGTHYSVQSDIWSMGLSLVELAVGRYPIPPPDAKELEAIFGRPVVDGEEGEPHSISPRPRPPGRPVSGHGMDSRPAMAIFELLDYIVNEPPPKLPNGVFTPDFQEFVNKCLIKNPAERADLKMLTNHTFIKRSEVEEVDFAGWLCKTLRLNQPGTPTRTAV

In the case of `COc1ccc2c(c1)[C@]1(C[C@H]1c1ccc3c(/C=C/c4ccc(CN5C[C@@H](C)O[C@@H](C)C5)cc4)n[nH]c3c1)C(=O)N2` [CFI-400945], the “% Inhibition” value was 4% and -6% on various kinases [1]; 9% and 7% at various kinases [2]; 1% and 2% at various kinases [4]; 46% and 45% at various kinases [6]; -4% and -3% at various kinases [7]; -3% and -1% at various kinases [8] (CDK11 (Inactive)). Besides, the “% Inhibition” value on various kinases [8] (CDK11/cyclin C) was 16% and 13%. Further, the “% Inhibition Average” value was found to be 18% at various kinases [3], 3% on various kinases [5] and 0% at various kinases [9]. In addition, the “% Inhibition Duplicate #1” value on various kinases [3] is given as 25%; at various kinases [5], 4%; at various kinases [9], -1%. The entries for the “% Inhibition Duplicate #2” value at various kinases [3], on various kinases [5] and on various kinases [9] were 11%, 3% and 0%, respectively. Also, in [10] (7.5 mg/kg/day oral for 21 days, p=0.0146), the “growth of intracranial AT/RT tumors (luminescence)” value is recorded as “significantly reduced”. Moreover, the “survival of treated animals” value in test [10] (7.5 mg/kg/day oral for 21 days, p=0.0477, log-rank test) was “extended”. Besides, the “nuclear area FC in tumor cells” value in [10] (setting [11]) is recorded as 21.67. For the same molecule, the “nuclear diameter FC in tumor cells” value in test [10] (setting [11]) was 2.69.

As a reminder, the % Inhibition is the change of the read-out against control, counted positive when it falls.
